Source: publication PMC7979765, “trans-Translation inhibitors bind to a novel site on the ribosome and clear Neisseria gonorrhoeae in vivo” (Nature Communications, 2021)
Converted amounts (≈) assume the structure as drawn. “And” between values parts separate entries of the source, which are not always exact repeats. Equal values may be shown once. Read-outs that look alike come from different tables or passages of the source.

Legend:
[1] = Serum protein binding, murine; type: in vitro ADME, mouse; settings: for fraction unbound: mouse, serum
Method: Serum protein binding was determined using an equilibrium dialysis method as described. The amount of compound in each chamber (buffer and serum) was measured using methods for reverse-phase liquid chromatography/mass spectroscopy methods that were customized for each compound.

[2] = Aqueous solubility (nephelometric); type: physicochemical; settings: aqueous solution (buffer not named); single replicates
[3] = test system: trans-translation; experiment: In vitro trans-translation assay (S12 extract, nanoluc-ns, tmRNA-nl); type: biochemical, Escherichia coli; design: background subtraction: unit not given here; settings: for IC50: in vitro reconstituted assay; for normalized: activity, 0 = 100
Description: The in vitro trans-translation assay is designed to produce the first 157 amino acids of nano-luciferase from a non-stop mRNA (nanoluc-ns) and add the C-terminal peptide […] via a mutant version of E. coli tmRNA (tmRNA-nl) to reconstitute an active nano-luciferase[45]. In this assay, the tagged nano-luciferase gene has >30,000-fold increase in activity over the peptide made in the absence of tmRNA-nl.
S12 lysates were made according to the procedure of Kim, et al.[46]. Briefly, a culture of E. coli BL21 (DE3) cells containing a pET28 plasmid carrying the E. coli T7 polymerase gene was grown at 37 °C to an OD600 = 0.8, induced with 1 mM IPTG and grown for an additional 3 h. Cells were harvested by centrifugation at 20,000 × g for 10 min at 4 °C and the pellet was resuspended in buffer A (20 mM Tris-acetate (pH 8.2), 14 mM Mg(OAc)2, 60 mM potassium glutamate, 1 mM DTT). Cells were lysed by sonication, the lysate was clarified by centrifugation at 12,000 × g for 10 min, and the supernatant was stored at −80 °C.
E. coli SmpB was purified as previously described. tmRNA-nl, a variant of E. coli tmRNA encoding the final 11 residues of nano-luciferase, was transcribed from the tmRNA-nl synthetic DNA sequence in vitro, purified, and folded as previously described for wild-type E. coli tmRNA[3]. The nanoluc-stop template DNA was prepared as previously described[3] by PCR amplification from pMC1 using T7 universal and nanoluc-stop primers. The nanoluc-ns was prepared in a similar manner using pMC1 with T7 universal and nanoluc-ns primers.
For in vitro trans-translation, tmRNA-nl and SmpB were premixed and stored on ice. S12 lysate (2 μl), freshly made polymix buffer (2 μl)[47] (final reaction concentrations 5 mM Hepes pH 7.6, 5 mM NH4Cl, 0.5 mM CaCl2, 1.5 mm MgCl2, 1 mM DTT, 8 mm putrescene, 2 mm ATP, 2 mM GTP, 1 mM CTP, 1 mM UTP, 0.3 mM each amino acid, 3 mg/ml E. coli tRNAs), nanoluc-ns template (0.5 μl; 60 ng) and 2 µl water were mixed and incubated at 37 °C for 5 min. This solution was dispensed to tubes containing 0.5 μl of different concentrations of an inhibitor prepared in 75% acetonitrile, 25% water, and incubated at 37 °C for 5 min. The tmRNA-nl/SmpB mixture (0.5 μl each, 2 μM final) was added to each tube and the samples were incubated at 37 °C for 1.5 h. NanoLuc substrate (Promega) was prepared according to the manufacturer’s instructions, one volume of this substrate solution was added to each sample tube, and the reactions transferred to a white 96-well plate. Luminescence readings were obtained using the SpectraMax i3 microplate reader. Data analysis was performed using GraphPad Prism 8.

[4] = test system: HeLa cells; experiment: Mammalian cell cytotoxicity (CC50); type: cell-based, human; settings: for CC50: HeLa cytotoxicity; for NORMALIZED DATA (Fraction DMSO Control) / […] (Fraction DMSO Control): HeLa
Method: The half maximal cytotoxic concentration (CC50) of each compound against HeLa cells (ATCC CCL-2) was measured as previously described. […] The mean values for each biological replicate were averaged, and the CC50 was determined using a 4-parameter nonlinear curve fitting algorithm (GraphPad Prism). The average of the CC50s from two biological replicates was calculated and reported.

[5] = Solubility (formulated); type: physicochemical
[6] = Pharmacokinetic analyses in mice (PO suspension, IV, SC); type: in vivo, mouse
Method: Female CD-1 mice as above were fasted for 2 h prior, and 4 h after dosing. […] […], 3 mice from each group were euthanized by CO2 inhalation, blood was collected by cardiac puncture into K2EDTA collection tubes, and protein was precipitated and analysed by LC/MS-MS for plasma concentrations of MBX-4132. Data were analysed using WinNonLin.
[…] At 0.083, 0.5, 1, 4, 8 and 24 h post dose, blood was collected from 3 mice/group by tail vein or facial bleed into K2EDTA collection tubes, and protein was precipitated and analysed by LC/MS-MS for plasma concentrations of MBX-4132. Sampling was performed serially, with each mouse contributing sample at all time points. Data were analysed using WinNonLin.

O=C(Nc1nnc(-c2ccc(F)cc2)o1)c1ccc(Cl)cc1 [KKL-35, 4-chloro-N-(5-(4-fluorophenyl)-1,3,4-oxadiazol-2-yl)benzamide]
fraction unbound ([1]; murine serum, read-out: murine serum binding (% bound)): < 0.01
Solubility [2]: 6.3 µM (≈ 2 µg/mL)
IC50 [3]: 0.4 µM
CC50 ([4]; one value per replicate, listed as MBX-3535): 30.6 µM and 26 µM and 22 µM and 29.1 µM and 34.1 µM
NORMALIZED DATA (Fraction DMSO Control) ([4]; [CMPD] 0.78125 µM, replicates, listed as MBX-3535): 0.9983 Fraction DMSO Control and 0.9009 Fraction DMSO Control and 0.8841 Fraction DMSO Control and 1.049 Fraction DMSO Control and 0.992 Fraction DMSO Control and 0.9968 Fraction DMSO Control
NORMALIZED DATA (Fraction DMSO Control) ([4]; [CMPD] 1.5625 µM, replicates, listed as MBX-3535): 0.9916 Fraction DMSO Control and 0.9029 Fraction DMSO Control and 0.888 Fraction DMSO Control and 1.05 Fraction DMSO Control and 0.9984 Fraction DMSO Control and 0.9932 Fraction DMSO Control
NORMALIZED DATA (Fraction DMSO Control) ([4]; [CMPD] 3.125 µM, replicates, listed as MBX-3535): 0.9963 Fraction DMSO Control and 0.9267 Fraction DMSO Control and 0.8661 Fraction DMSO Control and 1.071 Fraction DMSO Control and 1.023 Fraction DMSO Control and 1.002 Fraction DMSO Control
NORMALIZED DATA (Fraction DMSO Control) ([4]; [CMPD] 6.25 µM, replicates, listed as MBX-3535): 1.002 Fraction DMSO Control and 0.9334 Fraction DMSO Control and 0.856 Fraction DMSO Control and 1.09 Fraction DMSO Control and 1.008 Fraction DMSO Control and 1.022 Fraction DMSO Control
NORMALIZED DATA (Fraction DMSO Control) ([4]; [CMPD] 12.5 µM, replicates, listed as MBX-3535): 0.9694 Fraction DMSO Control and 0.9248 Fraction DMSO Control and 0.8736 Fraction DMSO Control and 1.069 Fraction DMSO Control and 1.012 Fraction DMSO Control and 1.014 Fraction DMSO Control
NORMALIZED DATA (Fraction DMSO Control) ([4]; [CMPD] 25 µM, replicates, listed as MBX-3535): 0.8994 Fraction DMSO Control and 0.8509 Fraction DMSO Control and 0.795 Fraction DMSO Control and 0.4926 Fraction DMSO Control and 0.6416 Fraction DMSO Control and 0.799 Fraction DMSO Control
NORMALIZED DATA (Fraction DMSO Control) ([4]; [CMPD] 50 µM, replicates, listed as MBX-3535): 0.6292 Fraction DMSO Control and 0.6178 Fraction DMSO Control and 0.5987 Fraction DMSO Control and 0.3592 Fraction DMSO Control and 0.3855 Fraction DMSO Control and 0.3659 Fraction DMSO Control
NORMALIZED DATA (Fraction DMSO Control) ([4]; [CMPD] 100 µM, replicates, listed as MBX-3535): 0.6116 Fraction DMSO Control and 0.6041 Fraction DMSO Control and 0.6139 Fraction DMSO Control and 0.191 Fraction DMSO Control and 0.1882 Fraction DMSO Control and 0.2089 Fraction DMSO Control
Solubility [5]: 1000 µg/mL (≈ 3.15 mM)

O=C(Nc1nnc(-c2ccc(F)cc2)o1)N1CCc2ccccc2C1 [MBX-4132]
Serum binding (% bound) Murine ([1]; Replicate 1/2, Eurofins): 99.9% and 95.5%
fraction unbound ([1]; Average Value, Eurofins, read-out: Serum binding (% bound) Murine (converted)): 0.023
fraction unbound ([1]; Reported value, Eurofins, read-out: Serum binding (% bound) Murine (converted)): 0.02
Solubility [2]: 100 µM (≈ 33.8 µg/mL)
normalized ([3]; [4132] 0.01): 102.817 and 102.626 and 90.8451
background subtraction ([3]; [4132] 0.05): 284
raw luminescence read (rlu) ([3]; [4132] 0.05): 319 rlu
normalized ([3]; [4132] 0.05): 66.6667
background subtraction ([3]; [4132] 0.1): 337 and 425 and 284
raw luminescence read (rlu) ([3]; [4132] 0.1): 443 rlu and 372 rlu and 319 rlu
normalized ([3]; [4132] 0.1): 59.331 and 41.3424 and 66.6667
background subtraction ([3]; [4132] 0.5): 266 and 178
raw luminescence read (rlu) ([3]; [4132] 0.5): 301 rlu and 213 rlu
normalized ([3]; [4132] 0.5): 46.831 and 41.784
background subtraction [3, 4132] 1: 213 and 266 and 426
raw luminescence read (rlu) [3, 4132] 1: 248 rlu and 284 rlu and 461 rlu
background subtraction [3, 4132] 2: 302 and 230
raw luminescence read (rlu) [3, 4132] 2: 337 rlu and 248 rlu
IC50 [3]: 0.4 µM
CC50 ([4]; value per replicate): 40.1 µM and 36.3 µM and 20.1 µM and 22.1 µM and 22.6 µM
NORMALIZED DATA (Fraction DMSO Control) ([4]; [CMPD] 0.78125 µM, per replicate): 0.9968 Fraction DMSO Control and 1.046 Fraction DMSO Control and 1.033 Fraction DMSO Control and 0.9287 Fraction DMSO Control and 0.9308 Fraction DMSO Control and 0.9008 Fraction DMSO Control
NORMALIZED DATA (Fraction DMSO Control) ([4]; [CMPD] 1.5625 µM, per replicate): 0.97 Fraction DMSO Control and 0.9994 Fraction DMSO Control and 0.9978 Fraction DMSO Control and 0.9354 Fraction DMSO Control and 0.9201 Fraction DMSO Control and 0.9227 Fraction DMSO Control
NORMALIZED DATA (Fraction DMSO Control) ([4]; [CMPD] 3.125 µM, per replicate): 0.9272 Fraction DMSO Control and 0.9885 Fraction DMSO Control and 0.9744 Fraction DMSO Control and 0.9295 Fraction DMSO Control and 0.9174 Fraction DMSO Control and 0.8829 Fraction DMSO Control
NORMALIZED DATA (Fraction DMSO Control) ([4]; [CMPD] 6.25 µM, per replicate): 0.9057 Fraction DMSO Control and 0.9944 Fraction DMSO Control and 0.9769 Fraction DMSO Control and 0.8719 Fraction DMSO Control and 0.9166 Fraction DMSO Control and 0.9146 Fraction DMSO Control
NORMALIZED DATA (Fraction DMSO Control) ([4]; [CMPD] 12.5 µM, per replicate): 0.7347 Fraction DMSO Control and 0.9472 Fraction DMSO Control and 1.04 Fraction DMSO Control and 0.6999 Fraction DMSO Control and 0.7003 Fraction DMSO Control and 0.7354 Fraction DMSO Control
NORMALIZED DATA (Fraction DMSO Control) ([4]; [CMPD] 25 µM, per replicate): 0.4205 Fraction DMSO Control and 0.7028 Fraction DMSO Control and 0.4452 Fraction DMSO Control and 0.4899 Fraction DMSO Control and 0.486 Fraction DMSO Control
[…] (Fraction DMSO Control) ([4]; [CMPD] 25 µM, per replicate): 0.7319 Fraction DMSO Control
NORMALIZED DATA (Fraction DMSO Control) ([4]; [CMPD] 50 µM, per replicate): 0.4043 Fraction DMSO Control and 0.3802 Fraction DMSO Control and 0.2112 Fraction DMSO Control and 0.1979 Fraction DMSO Control
[…] (Fraction DMSO Control) ([4]; [CMPD] 50 µM, per replicate): 0.2642 Fraction DMSO Control and 0.1957 Fraction DMSO Control
NORMALIZED DATA (Fraction DMSO Control) ([4]; [CMPD] 100 µM, per replicate): 0.2429 Fraction DMSO Control and 0.2248 Fraction DMSO Control and 0.2297 Fraction DMSO Control
[…] (Fraction DMSO Control) ([4]; [CMPD] 100 µM, per replicate): 0.1038 Fraction DMSO Control and 0.3131 Fraction DMSO Control and 0.2661 Fraction DMSO Control
oral bioavailability (in words) ([6]; mice): highly orally bioavailable
exposure in fasted vs fed mice (in words) ([6]; plasma at 1 and 4 h post dosing, formulation A): No significant variation in exposure
Solubility [5]: 5000 µg/mL (≈ 14.8 mM)
